Results taken from patent EP4692086A1, “ANTICOAGULATION REVERSAL AGENT, AND PREPARATION METHOD THEREFOR AND USE THEREOF” (Shaanxi Micot Pharmaceutical Technology Co., Ltd., priority 2023, dated 2024).

Legend:
Assay type in all cases: in vivo, SD rats
heparin-induced rats [1] = assay: Hepatic laceration hemorrhage model, antagonizing heparin; details: for Hepatic Laceration Bleeding Loss: bleeding loss over 30 min
heparin-induced rats [2] = assay: Tail transection hemorrhage model, antagonizing heparin; details: bleeding loss over 15 min
Description: (§1) Tail transection hemorrhage model: […] The anaesthetized animals were placed on an electric heating blanket preheated to 37°C. Jugular vein was isolated and cannulated within 30 min. Normal saline or drug was injected via the jugular vein. 5 min after injection, a transection was made 5 mm away from the tip of the rat's tail. Bleeding loss (BL) over 15 min was recorded. Temperatures including room temperature and water bath temperature were strictly controlled throughout the experiment.

enoxaparin-induced rats [3] = assay: Hepatic laceration hemorrhage model, antagonizing enoxaparin; details: for Hepatic Laceration Bleeding Loss: bleeding loss over 30 min; for Inhibition Rate: hepatic laceration bleeding loss, vs Vehicle (enoxaparin)
warfarin-induced rats [4] = assay: Hepatic laceration hemorrhage model, antagonizing warfarin; details: for Hepatic Laceration Bleeding Loss: jugular vein injection, bleeding loss over 30 min; for Inhibition Rate: hepatic laceration bleeding loss, vs Vehicle (warfarin)
Description: Hepatic laceration hemorrhage model: In all groups except for Control group and Compound 1 20 mg/kg+N.S. control group, SD rats were administered warfarin by oral gavage once daily for 3 consecutive days. 30 min after the final administration, the rats were injected with 10% chloral hydrate via intraperitoneal injection. The anaesthetized animals were placed on an electric heating blanket preheated to 37°C. Jugular vein was isolated and cannulated within 30 min. Aspirin was administered and 30 min later, test substances were injected via the jugular vein. 5 min after injection, the abdominal cavity was opened, and 3 standard incisions, each with a length of 1 cm and a depth of 2 mm, were made on the liver. Blood flowing from the liver was absorbed with pre-weighed dry cotton, and bleeding loss (BL) over 30 min was recorded.

enoxaparin-induced rats [5] = assay: Tail transection hemorrhage model, antagonizing enoxaparin; details: bleeding loss over 15 min
Description: as §1

warfarin-induced rats [6] = assay: Tail transection hemorrhage model, antagonizing warfarin (bleeding loss and WBCT); details: for Tail Transection Bleeding Loss: jugular vein injection, bleeding loss over 15 min
Description: Tail transection hemorrhage model: In all groups except for Control group and Compound 1 20 mg/kg+N.S. control group, SD rats were administered warfarin by oral gavage once daily for 3 consecutive days. 30 min after the final administration, the rats were injected with 10% chloral hydrate via intraperitoneal injection. The anaesthetized animals were placed on an electric heating blanket preheated to 37°C. Jugular vein was isolated and cannulated within 30 min. Normal saline or drug was injected via the jugular vein. 5 min after injection, a transection was made 5 mm away from the tip of the rat's tail. Bleeding loss (BL) over 15 min was recorded. At the end of the experiment, blood was collected from the abdominal cavity and WBCT was measured. Temperatures including room temperature and water bath temperature were strictly controlled throughout the experiment.

[7] = 10 mg/kg+heparin, listed as compound 1
[8] = 5 mg/kg+enoxaparin, listed as compound 1
[9] = 20 mg/kg+warfarin, blood collected at the end of the experiment
[10] = Rattus norvegicus, read-out: Inhibition Rate

## N=C(N)NCCCC(N)C(=O)NCCCn1c(=O)c2c(ncn2CCCNC(=O)C(N)CCCNC(=N)N)n(CCCNC(=O)C(N)CCCNC(=N)N)c1=O (stereo not drawn) [Compound 1]
heparin-induced rats [1]; 5 mg/kg+heparin
  Hepatic Laceration Bleeding Loss: 0.3217 ± 0.0919 g
heparin-induced rats [1]; 10 mg/kg compound 1 (so in the source)+heparin, compared to the Vehicle group
  inhibition rate for hepatic laceration bleeding loss: 88.9%
heparin-induced rats [1]; 10 mg/kg+heparin
  Hepatic Laceration Bleeding Loss: 0.1794+0.0966 g
heparin-induced rats [1]; [7]
  Hepatic Laceration Bleeding Loss: significantly reduced
heparin-induced rats [1]; 20 mg/kg+heparin
  Hepatic Laceration Bleeding Loss: 0.0560+0.0408 g
heparin-induced rats [2]; 5 mg/kg+heparin
  Tail Transection Bleeding Loss: 38.3625 ± 12.6991 mg
heparin-induced rats [2]; 10 mg/kg+heparin
  Tail Transection Bleeding Loss: 19.9375 ± 22.3215 mg
heparin-induced rats [2]; [7]
  Tail Transection Bleeding Loss: significantly reduced
heparin-induced rats [2]; 20 mg/kg+heparin
  Tail Transection Bleeding Loss: 12.1125 ± 6.6714 mg
enoxaparin-induced rats [3]; 0.2 mg/kg+enoxaparin
  Hepatic Laceration Bleeding Loss: 0.5253 ± 0.2034 g
  Inhibition Rate: -17.1%
enoxaparin-induced rats [3]; 1 mg/kg+enoxaparin
  Hepatic Laceration Bleeding Loss: 0.1674 ± 0.0734 g
  Inhibition Rate: 62.7%
enoxaparin-induced rats [3]; 1 mg/kg+enoxaparin, listed as compound 1
  Hepatic Laceration Bleeding Loss: significantly reduced
enoxaparin-induced rats [3]; 5 mg/kg+enoxaparin
  Hepatic Laceration Bleeding Loss: 0.0490 ± 0.0184 g
  Inhibition Rate: 89.1%
enoxaparin-induced rats [3]; [8]
  Hepatic Laceration Bleeding Loss: significantly reduced
warfarin-induced rats [4]; 5 mg/kg+warfarin
  Hepatic Laceration Bleeding Loss: 0.3029 ± 0.1189 g
  Inhibition Rate: -7.9
warfarin-induced rats [4]; 10 mg/kg+warfarin
  Hepatic Laceration Bleeding Loss: 0.2379 ± 0.1613 g
  Inhibition Rate: 15.3
warfarin-induced rats [4]; 20 mg/kg+warfarin, compared to the Vehicle group
  inhibited hepatic laceration bleeding loss: 72.1%
warfarin-induced rats [4]; 20 mg/kg+warfarin
  Hepatic Laceration Bleeding Loss: 0.0784 ± 0.0346 g
  Inhibition Rate: 72.1
enoxaparin-induced rats [5]; 0.2 mg/kg+enoxaparin
  Tail Transection Bleeding Loss: 0.0903 ± 0.0426 g
enoxaparin-induced rats [5]; 1 mg/kg+enoxaparin
  Tail Transection Bleeding Loss: 0.0302 ± 0.0147 g
enoxaparin-induced rats [5]; 5 mg/kg+enoxaparin
  Tail Transection Bleeding Loss: 0.0158 ± 0.0083 g
enoxaparin-induced rats [5]; [8]
  Tail Transection Bleeding Loss: superior to the 20 mg/kg PER977 group
warfarin-induced rats [6]; 20 mg/kg+N.S. (no warfarin), compared to the Control group
  WBCT: no significant changes
warfarin-induced rats [6]; [9]
  WBCT: 490 ± 99 s
warfarin-induced rats [6]; 20 mg/kg+warfarin, blood collected at the end of the experiment, listed as compound 1
  WBCT: significantly shortened
warfarin-induced rats [6]; 20 mg/kg+warfarin
  Tail Transection Bleeding Loss: 0.0143 ± 0.0108 g
warfarin-induced rats [6]; 20 mg/kg+warfarin, listed as compound 1
  Tail Transection Bleeding Loss: significantly reduced

## N=C(N)NCCC[C@H](N)C(=O)NCCCN1CCN(CCCNC(=O)[C@@H](N)CCCNC(=N)N)CC1 [PER977, diarginine piperazine, reference compound]
heparin-induced rats [1]; 20 mg/kg+heparin
  Hepatic Laceration Bleeding Loss: 0.0511 ± 0.0444 g
heparin-induced rats [2]; 20 mg/kg+heparin
  Tail Transection Bleeding Loss: 17.9000 ± 11.6004 mg
enoxaparin-induced rats [3]; 20 mg/kg+enoxaparin
  Hepatic Laceration Bleeding Loss: 0.0420 ± 0.0244 g
enoxaparin-induced rats [3]; [10]
  inhibition at 20 mg/kg: 90.6%
warfarin-induced rats [4]; 20 mg/kg+warfarin
  Hepatic Laceration Bleeding Loss: 0.0874 ± 0.0292 g
warfarin-induced rats [4]; [10]
  inhibition at 20 mg/kg: 68.9%
enoxaparin-induced rats [5]; 20 mg/kg+enoxaparin
  Tail Transection Bleeding Loss: 0.0228 ± 0.0155 g
warfarin-induced rats [6]; [9]
  WBCT: 471 ± 101 s
warfarin-induced rats [6]; 20 mg/kg+warfarin
  Tail Transection Bleeding Loss: 0.0276 ± 0.0123 g
